Test results: patent US20210395239A1 (Hoffmann-La Roche Inc., priority 2018, published 2021)

Target: T1, human TLR7 (Homo sapiens, UniProt Q9NYK1)
T1 construct: host or cells: HEK293 (HEK-Blue hTLR7)
T1 sequence (Q9NYK1 27-1049): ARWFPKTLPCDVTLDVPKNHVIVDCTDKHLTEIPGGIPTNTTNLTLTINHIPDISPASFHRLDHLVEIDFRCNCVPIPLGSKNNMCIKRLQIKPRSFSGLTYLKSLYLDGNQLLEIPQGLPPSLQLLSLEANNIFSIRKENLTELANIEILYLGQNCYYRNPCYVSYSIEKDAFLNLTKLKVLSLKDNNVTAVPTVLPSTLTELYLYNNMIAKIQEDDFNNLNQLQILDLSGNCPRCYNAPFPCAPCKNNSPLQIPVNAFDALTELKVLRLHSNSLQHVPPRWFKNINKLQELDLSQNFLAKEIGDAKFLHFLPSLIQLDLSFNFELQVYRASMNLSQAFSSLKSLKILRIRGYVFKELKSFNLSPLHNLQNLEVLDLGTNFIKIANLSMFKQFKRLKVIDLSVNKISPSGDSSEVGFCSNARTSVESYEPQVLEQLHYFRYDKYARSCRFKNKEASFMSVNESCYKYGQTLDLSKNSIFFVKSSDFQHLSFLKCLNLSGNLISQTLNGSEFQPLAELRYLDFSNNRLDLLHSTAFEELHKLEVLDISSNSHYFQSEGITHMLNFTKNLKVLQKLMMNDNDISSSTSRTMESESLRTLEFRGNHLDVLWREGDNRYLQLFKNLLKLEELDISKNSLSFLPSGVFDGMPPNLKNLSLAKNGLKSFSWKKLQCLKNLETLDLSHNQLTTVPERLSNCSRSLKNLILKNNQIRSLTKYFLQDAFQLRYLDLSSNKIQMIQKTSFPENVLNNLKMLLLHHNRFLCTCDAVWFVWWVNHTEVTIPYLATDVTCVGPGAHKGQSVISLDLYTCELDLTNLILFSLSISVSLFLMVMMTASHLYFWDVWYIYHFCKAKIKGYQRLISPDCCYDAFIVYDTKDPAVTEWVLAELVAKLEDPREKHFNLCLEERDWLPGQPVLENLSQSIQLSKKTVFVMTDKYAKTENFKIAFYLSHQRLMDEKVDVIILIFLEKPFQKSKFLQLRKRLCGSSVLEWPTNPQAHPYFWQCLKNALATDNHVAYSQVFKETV
Assay: HEK293-Blue-hTLR-7 cells assay (SEAP reporter, R848 stimulation)
Type: cell-based
Details: HEK293-Blue-hTLR7 cells, R848, 20 hrs; read-out: HEK/hTLR7 IC50
How it was run: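 HEK293-Blue-hTLR7 cells (NF-κB/AP-1-driven SEAP reporter) were stimulated with R848 alongside serially diluted compound at 1% final DMSO for 20 h at 37 °C. Supernatant SEAP was then developed with QUANTI-Blue for 2 h at 37 °C and absorbance read at 620–655 nm; antagonism is measured as reduced reporter signal.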

IC50	Compound
53 nM	C[C@@H]1CN(c2cc(=O)n(C)c3ncccc23)C[C@H](CN2CC(c3ccc(N4CC5(CN(C)C5)C4)cc3)C2)O1 [Example 180, 1-methyl-4-[(2R,6S)-2-methyl-6-[[3-[4-(6-methyl-2,6-diazaspiro[3.3]heptan-2-yl)phenyl]azetidin-1-yl]methyl]morpholin-4-yl]-1,8-naphthyridin-2-one]
11 nM	C[C@@H]1CN(c2ccc(C#N)c3ncccc23)C[C@H](CN2CCN(c3ccnc(NC4CNC4)n3)CC2)O1 [Example 28, 5-[(2S,6R)-2-[[4-[2-(azetidin-3-ylamino)pyrimidin-4-yl]piperazin-1-yl]methyl]-6-methyl-morpholin-4-yl]quinoline-8-carbonitrile]
8 nM	Cc1cc(N2CCN(C[C@H]3CN(c4ccc(C#N)c5ncccc45)C[C@@H](C)O3)CC2)nc(N2CC3(CNCCO3)C2)n1 [Example 61, 5-[(2R,6S)-2-methyl-6-[[4-[6-methyl-2-(5-oxa-2,8-diazaspiro[3.5]nonan-2-yl)pyrimidin-4-yl]piperazin-1-yl]methyl]morpholin-4-yl]quinoline-8-carbonitrile]
33 nM	C[C@@H]1CN(c2ccc(C#N)c3ncccc23)C[C@H](CN2CCN(c3cccc(N4CCNCC4)n3)CC2)O1 [Example 10, 5-[(2R,6S)-2-methyl-6-[[4-(6-piperazin-1-yl-2-pyridyl)piperazin-1-yl]methyl]morpholin-4-yl]quinoline-8-carbonitrile]
16 nM	C[C@@H]1CN(c2ccc(C#N)c3ncccc23)C[C@H](CN2CCN(c3nc(N4CCNCC4)ncc3C#N)CC2)O1 [Example 50, 5-[(2S,6R)-2-[[4-(5-cyano-2-piperazin-1-yl-pyrimidin-4-yl)piperazin-1-yl]methyl]-6-methyl-morpholin-4-yl]quinoline-8-carbonitrile]
50 nM	C[C@@H]1CN(c2ccc(C#N)c3ncccc23)C[C@H](CN2CCN(c3ccnc(N4CC(N)C4)n3)CC2)O1 [Example 23, 5-[(2S,6R)-2-[[4-[2-(3-aminoazetidin-1-yl)pyrimidin-4-yl]piperazin-1-yl]methyl]-6-methyl-morpholin-4-yl]quinoline-8-carbonitrile]
24 nM	Cc1cc(N2CCN(C[C@H]3CN(c4ccc(C#N)n5ncc(F)c45)C[C@@H](C)O3)CC2)nc(N2CCNCC2)n1 [Example 67, 3-Fluoro-4-[(2R,6S)-2-methyl-6-[[4-(6-methyl-2-piperazin-1-yl-pyrimidin-4-yl)piperazin-1-yl]methyl]morpholin-4-yl]pyrazolo[1,5-a]pyridine-7-carbonitrile]
16 nM	C[C@@H]1CN(c2ccc(C#N)c3ncccc23)C[C@H](CN2CCN(c3ccnc(N4CCN[C@@H](CO)C4)n3)CC2)O1 [Example 29, 5-[(2S,6R)-2-[[4-[2-[(3R)-3-(hydroxymethyl)piperazin-1-yl]pyrimidin-4-yl]piperazin-1-yl]methyl]-6-methyl-morpholin-4-yl]quinoline-8-carbonitrile]
24 nM	C[C@@H]1CN(c2ccc(C#N)c3ncccc23)C[C@H](CN2CCN(c3cccc(N4CCN(C)CC4)n3)CC2)O1 [Example 33, 5-[(2R,6S)-2-methyl-6-[[4-[6-(4-methylpiperazin-1-yl)-2-pyridyl]piperazin-1-yl]methyl]morpholin-4-yl]quinoline-8-carbonitrile]
20 nM	C[C@@H]1CN(c2ccc(C#N)n3ncc(F)c23)C[C@H](CN2CCN(c3ccc(N4C[C@H]5NCCO[C@@H]5C4)nc3)CC2)O1 [Example 168, 4-[(2S,6R)-2-[[4-[6-[(4aR,7aR)-3,4,4a,5,7,7a-hexahydro-2H-pyrrolo[3,4-b][1,4]oxazin-6-yl]-3-pyridyl]piperazin-1-yl]methyl]-6-methyl-morpholin-4-yl]-3-fluoro-pyrazolo[1,5-a]pyridine-7-carbonitrile]
23 nM	C[C@@H]1CN(c2ccc(C#N)c3ncccc23)C[C@H](CN2CCC(C#N)(c3ccc(N4CCNCC4)cc3)CC2)O1 [Example 11, 5-[(2S,6R)-2-[[4-cyano-4-(4-piperazin-1-ylphenyl)-1-piperidyl]methyl]-6-methyl-morpholin-4-yl]quinoline-8-carbonitrile]
25 nM	C[C@@H]1CN(c2ccc(C#N)c3ncccc23)C[C@H](CN2CCN(c3ccc([C@@H]4CNCCO4)cc3)CC2)O1 [Example 19, 5-[(2R,6S)-2-methyl-6-[[4-[4-[(2R)-morpholin-2-yl]phenyl]piperazin-1-yl]methyl]morpholin-4-yl]quinoline-8-carbonitrile]
11 nM	CO[C@H]1CN(c2nc(C)cc(N3CCN(C[C@H]4CN(c5ccc(C#N)c6ncccc56)C[C@@H](C)O4)CC3)n2)CC1N (relative stereo) [Example 59, 5-[(2R,6S)-2-methyl-6-[[4-[6-methyl-2-[trans-3-amino-4-methoxy-pyrrolidin-1-yl]pyrimidin-4-yl]piperazin-1-yl]methyl]morpholin-4-yl]quinoline-8-carbonitrile]
19 nM	C[C@@H]1CN(c2ccc(C#N)c3ncccc23)C[C@H](CN2CCN(c3cc(N4CCNCC4)ccn3)CC2)O1 [Example 9, 5-[(2R,6S)-2-methyl-6-[[4-(4-piperazin-1-yl-2-pyridyl)piperazin-1-yl]methyl]morpholin-4-yl]quinoline-8-carbonitrile]
15 nM	C[C@@H]1CN(c2ccc(C#N)c3ncccc23)C[C@H](CN2CCN(c3ccnc(N4CCC(N)CC4)n3)CC2)O1 [Example 27, 5-[(2S,6R)-2-[[4-[2-(4-amino-1-piperidyl)pyrimidin-4-yl]piperazin-1-yl]methyl]-6-methyl-morpholin-4-yl]quinoline-8-carbonitrile]
35 nM	C[C@@H]1CN(c2ccc(C#N)c3ncccc23)C[C@H](CN2CCN(c3cccc(N4CC(N)C(F)C4)n3)CC2)O1 (stereo partly drawn) [Example 40, 5-[(2S,6R)-2-[[4-[6-(3-amino-4-fluoro-pyrrolidin-1-yl)-2-pyridyl]piperazin-1-yl]methyl]-6-methyl-morpholin-4-yl]quinoline-8-carbonitrile]
56 nM	Cc1cc(N2CCN(C[C@H]3CN(c4ccc(C#N)c5ncccc45)C[C@@H](C)O3)CC2)nc(N2CCOCC(N)C2)n1 (stereo partly drawn) [Example 56, 5-[(2S,6R)-2-[[4-[2-(6-amino-1,4-oxazepan-4-yl)-6-methyl-pyrimidin-4-yl]piperazin-1-yl]methyl]-6-methyl-morpholin-4-yl]quinoline-8-carbonitrile]
11 nM	C[C@@H]1CN(c2ccc(C#N)c3ncccc23)C[C@H](CN2CCN(c3cc(N4CCNCC4)ncn3)CC2)O1 [Example 18, 5-[(2R,6S)-2-methyl-6-[[4-(6-piperazin-1-ylpyrimidin-4-yl)piperazin-1-yl]methyl]morpholin-4-yl]quinoline-8-carbonitrile]
47 nM	C[C@@H]1CN(c2cc(=O)n(C)c3ncccc23)C[C@H](CN2CC(c3ccc(N4CC(F)[C@H](N)C4)cc3)C2)O1 (stereo in doubt) [Example 174, 4-[(2S,6R)-2-[[3-[4-[(3R,4R)-3-amino-4-fluoro-pyrrolidin-1-yl]phenyl]azetidin-1-yl]methyl]-6-methyl-morpholin-4-yl]-1-methyl-1,8-naphthyridin-2-one]
38 nM	C[C@@H]1CN(c2ccc(C#N)c3ncccc23)C[C@H](CN2CCN(c3ccnc(N[C@H]4CNC[C@H]4F)n3)CC2)O1 [Example 24, 5-[(2S,6R)-2-[[4-[2-[[(3S,4R)-4-fluoropyrrolidin-3-yl]amino]pyrimidin-4-yl]piperazin-1-yl]methyl]-6-methyl-morpholin-4-yl]quinoline-8-carbonitrile]
6 nM	C[C@@H]1CN(c2ccc(C#N)c3ncccc23)C[C@H](CN2CCN(c3nccc(N4CCNCC4)n3)CC2)O1 [Example 14, 5-[(2R,6S)-2-methyl-6-[[4-(4-piperazin-1-ylpyrimidin-2-yl)piperazin-1-yl]methyl]morpholin-4-yl]quinoline-8-carbonitrile]
23 nM	CO[C@H]1CN(c2cccc(N3CCN(C[C@H]4CN(c5ccc(C#N)c6ncccc56)C[C@@H](C)O4)CC3)n2)C[C@H]1N [Example 42, 5-[(2S,6R)-2-[[4-[6-[(3R,4S)-3-amino-4-methoxy-pyrrolidin-1-yl]-2-pyridyl]piperazin-1-yl]methyl]-6-methyl-morpholin-4-yl]quinoline-8-carbonitrile]
